Test results reported in ChEMBL document CHEMBL3507680, “University of Dundee, Gates Library screen for HepG2 cell viability”.

Experiment: Human HepG2 cell viability assay in 384 well format
Assay type: toxicity, cell-based
Parameters: dose 125 nL, time 70.5 hour; concentration not given beside the values
Details: HepG2 cells, read-out: Inhibition

Structure (SMILES) | cytotoxicity at 70.5 h
Cc1ccc(C)c(C(NC(=O)C2CC2)c2cccnc2)c1 (stereo not given) | -1.23%
CC(Cn1cncn1)NCc1nncn1C1CCCCC1 (stereo not given) | -1.66%
CCOCC(O)CN1CCN(C(=O)c2ccc(OC)cc2F)CC1 (stereo not given) | -21.8%
CN(C)CCCNCCC(Cc1ccccc1)C1CCOC(C)(C)C1 (stereo not given) | 1.12%
CC(=O)N1CCOCC2(CN(Cc3ccccn3)CCO2)C1 (stereo not given) | -9.92%
COCCn1c(-c2cccc(OC)c2)cnc1NC(=O)NC1CCCC1 | 6.84%
CCc1nnc(CN2CCCC2Cn2cc(C)cn2)o1 (stereo not given) | 17.8%
Cc1ccc(-c2nc(CCNC(=O)CCN3CCOC3=O)co2)cc1 | -2.58%
CCc1nc(CN2CCCN(C(=O)C(C)COC)CC2)cs1 (stereo not given) | -2.68%
O=C(NCC(=O)N1CCC2(CC1)OCCO2)c1ccoc1 | -7.96%
CN(Cc1nc(C(C)(C)C)no1)C1CCS(=O)(=O)C1 (stereo not given) | 6.01%
CCNC(=O)C1CCCN(c2ccc(C#N)cc2C(F)(F)F)C1 (stereo not given) | -4.1%
CN(C)Cc1ccc(C(N)=O)cc1NC(=O)c1cccc(C#N)c1 | -4.53%
CN1C(=O)C2(CCN(S(C)(=O)=O)CC2)c2cc(F)ccc21 | -3.04%
Cc1ccc(C(=O)N2CCO[C@H]3[C@@H](OCc4ccccn4)CC[C@@H]32)o1 | -19.5%
CCN(CC1CC1)C(=O)NCc1nnc2n1CCC2 | 1.57%
CN(C)[C@H]1CCCCN(C(=O)CCc2csc(N)n2)C1 | -6.16%
O=C(c1cocn1)N1CCC[C@]2(C[C@@H](OCC3CC3)CO2)C1 | -7.29%
CCCNc1ccc(C(=O)NCCc2cccc(Cl)c2)cn1 | -4.77%
NC(=O)C1CCN(CC(=O)NCCc2c(F)cccc2F)CC1 | -7.99%
CN(C)C(=O)c1cn[nH]c1C1CCCN1Cc1c[nH]cn1 (stereo not given) | 0.232%
CN(C)CC1CN(Cc2cc(Cl)cc3cccnc23)CCO1 (stereo not given) | -9.09%
O=C1CCC(C(=O)Nc2cnn(-c3ccccc3Br)c2)N1 (stereo not given) | -15.6%

Structure (SMILES) | cytotoxicity at 70.5 h
Cc1nnc(NC(=O)CN2CCc3c(nc(C4CC4)n3C)C2)s1 | 6.62%
CC(C)c1ocnc1C(=O)N1CC(=O)Nc2cccnc21 | -1.78%
COc1cccc(-c2n[nH]cc2C(=O)NC(C)c2nc(C(C)C)no2)c1 (stereo not given) | -8.56%
Fc1ccc(-c2noc([C@@H]3Cc4nc[nH]c4CN3)n2)cc1 | -11.7%
Cc1cnc(N(C)CCCc2cnn(C)c2)nc1N(C)C | 14.8%
CC(C)(O)c1cn(C2CCN(c3ncccc3Cl)CC2)nn1 | 3.9%
Cc1cc(C)n(CC(=O)N2CCCCC2CCN2CCCC2=O)c(=O)n1 (stereo not given) | -12.3%
Cc1ccc(C)c(OCC(O)Cn2ncc3cnn(C)c(=O)c32)c1 (stereo not given) | 6.69%
O=C(CCNS(=O)(=O)c1cccnc1)N1CCOC(c2ccccc2)C1 (stereo not given) | -13.3%
COC(=O)CN(C(=O)c1ccco1)c1cccc(F)c1 | 16.3%
Cc1ncsc1C(=O)OCCN1CCCCCC1=O | -8.25%
O=C(CCNC(=O)c1cnccn1)Nc1ncc[nH]1 | -31.8%
COc1ccncc1NCc1cscn1 | -0.709%
Cc1cc(C)n(NC(=O)c2ccccc2F)c(=O)c1 | 15.6%
Cc1ccc(-c2csc(N)c2C#N)cc1 | -16.3%
CCc1ccc(CNC[C@H]2C[C@@H](CO)N(C)[C@H]2c2ccccc2F)o1 | -2.04%
O=C(O)c1cc2n(n1)CCCN(C(=O)CCc1c[nH]c3ccccc13)C2 | -16.4%
Cc1cc(C)c(CNC(=O)NCc2nnc3n2CCC3)c(=O)[nH]1 | 14.7%
CC(C)Nc1nc(N2CCOCC2)nc2c1CN(Cc1ccoc1)CC2 | -12.3%
Cc1ccc(CNC(=O)NCc2cccnc2N(C)C)s1 | -14.6%
CCc1nc(CN2CCc3c(ncn3C3CC3)C2)cs1 | -17%
CCc1ncc(C(=O)N(C)CCc2nc3cc(OC)ccc3[nH]2)cn1 | 11.2%
Cn1c(=O)oc2ccc(NC(=O)N3CCc4ccccc4C3)cc21 | 2.84%

Structure (SMILES) | cytotoxicity at 70.5 h
Cn1cccc1C(=O)N1CCC2(CCN2c2ncccn2)C1 (stereo not given) | -3.82%
Cc1cnc(CNc2c(F)cccc2-n2cccn2)o1 | 7.74%
CCN(C)C(=O)c1ccnn1-c1ccc2ccccn12 | 1.76%
N#Cc1cccc(OCCN2CCCC2C(=O)NCC(F)(F)F)c1 (stereo not given) | -0.526%
CCc1ccc(C(COC)NC(=O)c2ccsc2)o1 (stereo not given) | -3.72%
O=C(CCCN1CCCCC1)N1CCN(C(=O)c2ccc[nH]2)CC1 | 3.29%
O=C(CC1CCN(CCc2ccccc2)CC1)N1CCCOCC1 | -1.73%
Cc1nn(CC(C)C)cc1S(=O)(=O)N(C)Cc1nonc1C | 0.131%
Cc1cc(NC(=O)CN2CCn3c(nnc3C3CC3)C2)no1 | -5.22%
CCCN1CCC(c2nc3ccc(C)cn3n2)CC1 | -6.41%
CCC(=O)N1CC[C@H]2C(=O)N(Cc3ccc(OC)cc3)CCO[C@H]2C1 | 34.1%
CCc1cnc(CN(C(C)=O)C2CCN(CCc3cnn(C)c3)C2)o1 (stereo not given) | 2.5%
N#Cc1ccc(OCC(O)CN2CCC(c3ccn[nH]3)CC2)cc1 (stereo not given) | -14.4%
COc1cccc(CNC(=O)NC2(c3nc(C)no3)CCCCC2)c1 | 13.3%
N#Cc1cc(NS(=O)(=O)c2ccc(C(=O)O)cc2F)ccc1F | -1.12%
CC(COc1ccc(F)cc1F)NC(=O)NCCN1CCOCC1 (stereo not given) | -16%
O=C(NC1CCN(c2ncccn2)CC1)c1sccc1C1CC1 | -5.49%
CCNC(=O)CN(Cc1ccoc1)C1CCCCC1 | -9.92%
Cn1cccc1C(=O)N1C[C@@H]2C[C@@H](c3nc(C4CC4)cs3)O[C@@H]2C1 | 4.85%
Cc1nc(C(=O)N2CCCN(Cc3cnn(C)c3)CC2)ccc1C#N | -8.5%
COC(=O)c1ccc(C(=O)NCc2ccc(Br)cc2)cn1 | -2.31%
CC(C)NC(=O)CNC(C)c1c(F)cccc1Cl (stereo not given) | -79.9%
CNc1nc(C2CCCN(C(=O)C3CCCCC3)C2)nc2c1CNCC2 (stereo not given) | -3.63%

Structure (SMILES) | cytotoxicity at 70.5 h
CN(C)c1ncccc1NC(=O)COC1CCCC1 | -5.74%
Cn1nc2c(c1NC(=O)c1ccc(C3CCCN3C3CCC3)s1)CCC2 (stereo not given) | -6.85%
CC(NC(=O)Nc1nncs1)C(=O)NC1CCCC1 (stereo not given) | -8.75%
CC(C)OC(=O)CCNC(=O)Nc1cccc2ncccc12 | 8.18%
Cn1cnc(S(=O)(=O)NCC2(O)CCc3ccccc3C2)c1 (stereo not given) | -7.71%
CCCc1cc(C(=O)Nc2nc(SC)ns2)[nH]n1 | -4.32%
Cc1nn(C)c(C)c1C1CCCN1C(=O)CCc1ccco1 (stereo not given) | -1.9%
COCCN1CCC2(COCc3cnc(N(C)C)nc32)C1 (stereo not given) | -2.9%
CCCOc1cc(CNC(=O)Nc2ccc(C)cc2)ccn1 | -2.77%
Cc1ccc(N2CCN(C(=O)COc3ccccc3)CC2)nn1 | -1.33%
CCOCc1cnc2n1CCN(Cc1scnc1C)C2C (stereo not given) | -3.25%
Cc1cnc(-c2nc(C3CCN(Cc4ccccc4O)CC3)no2)cn1 | -4.91%
O=C(NCCC1=CCCCC1)C1CCCN(c2ccc3nncn3n2)C1 (stereo not given) | 9.17%
Cc1ccnn1C(C)C(=O)Nc1cc(-c2ccncc2)[nH]n1 (stereo not given) | -6.01%
CN(C)C(CNC(=O)CCNC(=O)OCC(F)(F)F)c1ccsc1 (stereo not given) | -0.647%
CC(C)NC(=O)[C@@H]1C[C@H](N)CN1C(=O)c1cc2c([nH]c1=O)CCCC2 | -7.39%
Cc1nn(C)cc1CN1CCc2nc3sccc3c(=O)n2CC1 | -9.47%
COC(=O)c1cc(OCC2CCC2)cc(C(=O)N[C@H](C)C(N)=O)c1 | -10.2%
CCNC(=O)[C@@H]1C[C@@H](N)CN1C(=O)C1(c2ccc(OC)cc2)CCCC1 | -9.96%
O=C(NCCNS(=O)(=O)c1ccc2c(c1)CCCC2)c1ccoc1 | -8.42%
Cc1c(NC(=O)NCC(C)N2CCOCC2)cccc1OC(F)F (stereo not given) | -0.748%
Cc1ccc(NC(=O)C(C)n2ccc(C(F)(F)F)n2)nc1 (stereo not given) | 1.64%
COc1ccc2c(c1)CN(Cc1nc3c(cnn3C)c(=O)[nH]1)CC2 | 45.5%

Structure (SMILES) | cytotoxicity at 70.5 h
CCc1ccc2nc(C)cc(C(=O)NC[C@@H]3CCNC[C@H]3O)c2c1 | 14.5%
Cc1cccc(C2CCCN(C(=O)CN3CCOC3=O)C2)c1 (stereo not given) | -17.6%
COc1ccc2nc(CNC(=O)C3CC4(CCNCC4)CN3C)[nH]c2c1 (stereo not given) | -20.5%
Cc1cc(CN2CCC(N(C)Cc3noc(C4CC4)n3)C2)no1 (stereo not given) | 13%
CCOCc1cc(CN2CCn3c(CO)nnc3C2)ccc1OC | 1.27%
CN(C)S(=O)(=O)N1CCCC(c2cccc(Cc3ccc(Cl)cc3)n2)C1 (stereo not given) | 17.5%
CC(=O)Nc1ccc(Oc2cccc(CN3CCCC3)c2)cc1 | -1.93%
CCn1ncc(C(=O)NCc2ccc(C)c(OC)c2)c1C(F)(F)F | -21.3%
CC(C)Oc1ncc(C(=O)N2CCCC(C(=O)O)C2)cc1Cl (stereo not given) | -7.98%
O=C(C1CC=CC1)N1C[C@@H]2CN(Cc3ccsc3)CCO[C@@H]2C1 | -15.4%
COCCc1noc(CNC2CCCC(C)(C)C2)n1 (stereo not given) | -4.63%
CCc1cnc(N2CCN(Cc3ccncc3)CC2)s1 | -3.17%
O=C(c1cncc(Br)c1)N1CCCc2c(F)cc(F)cc21 | -3%
Cc1ccc(CC(=O)N2CCCC(n3ccnc3C(C)C)C2)cn1 (stereo not given) | -7.44%
CCC(=O)N1CCC(c2nc(N3CCCCC3)ncc2S(C)(=O)=O)CC1 | -2.83%
CCC(CC)C(=O)N1CCC2(CC1)c1ccccc1[C@@H](OC)[C@@H]2O | -8.24%
O=C(c1nc(COc2ccc3c(c2)OCO3)no1)N1CCCC1 | -3.83%
CN(CCO)Cc1cc(Cl)ccc1OCC(O)CN1CCCCCC1 (stereo not given) | -14.1%
Cn1cc(-c2nc(CN3CCc4c(ncn4C)C3)cs2)cn1 | 31%
COCC(=O)N1CCC2(CC1)CC(COC)N(Cc1ccccn1)C2 (stereo not given) | -4.33%
CCC1=N[C@@]2(CC[C@@H]3CN(CC(=O)N(C)C)C[C@@H]32)C(=O)N1CC(C)C | -6.91%
CN(Cc1cnc(N)nc1)CC1CCCN(CCc2ccc(Cl)cc2)C1 (stereo not given) | 8.66%
O=C(NCc1ccccn1)c1cncc(C2CCCN2)n1 (stereo not given) | 22.2%
